Assay results: the METLIN SMRT retention time set (Domingo-Almenara et al. 2019)

Test: gradient 5% acetonitrile 3 min, to 50% in 2 min, to 85% in 15 min, held 3 min, 100 µL/min
Conditions: column: Zorbax Extend-C18 2.1 x 50 mm; eluents: water / acetonitrile, 0.1% formic acid
Method in brief: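 Data were gathered over 3 months by HPLC coupled to a quadrupole time-of-flight mass spectrometer, operated in positive and negative ionization mode. Mixtures of ~100 pure standards ran on a Zorbax Extend-C18 column (2.1 × 50 mm, 1.8 μm) at 100 μL/min, with water and acetonitrile each containing 0.1% formic acid and dead and dwell volumes of 40 μL and 900 μL. Retention time was read from adduct peaks picked by computer and checked manually.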

Structure (SMILES) | RP-LC retention time [s]
Cc1cccc(NC(=O)CN2CCc3[nH]c4c(C)cc(F)cc4c(=O)c3C2)c1 | 626
COc1ccc(S(=O)(=O)c2cnc3cc4c(cc3c2N2CCN(C)CC2)OCCO4)cc1 | 608
CN1C(=O)C(F)=C[C@]2(C)[C@H]3CC[C@]4(C)[C@@H](C(=O)NCc5nc6ncccc6[nH]5)CC[C@H]4[C@@H]3CC[C@@H]12 | 719
O=C(Cc1nc(-c2ccccn2)n[nH]1)Nc1cccc(Cl)c1 | 673
CCCCOc1cccc(C(=O)N(Cc2ccc(C)o2)C2CCS(=O)(=O)C2)c1 (stereo unspecified) | 1030
CCOC(=O)c1ccc(NC(=O)N2CCN(CC)c3ncccc32)cc1 | 640
Cc1nn(-c2ccccc2)c(C)c1S(=O)(=O)N1CCC(C(=O)Nc2ccc(C#N)cc2)CC1 | 938
CN1C(=O)C2(CCN(C(=O)Cc3cccc(F)c3)C2)c2ccccc21 (stereo unspecified) | 803
CC(C)CN1CCn2cc(C(=O)NCc3cc(F)ccc3F)nc2C1 | 608
Cc1cc(N2CCN(C(=O)c3ccc4c(c3)OCO4)CC2)nc2nnc(C)n12 | 595
Cc1ccsc1C(=O)N1CCC(Nc2ncnc3c2CCC3)CC1 | 778
COCC(=O)Nc1cnc(-c2cccc(Cl)c2)nc1 | 872
CCN1C(=O)CN(C(=O)c2ccsc2)CC12CCOCC2 | 621
Cc1ccc(Cl)cc1N1CCN(C(=O)C2CC(=O)c3ccccc32)CC1 (stereo unspecified) | 922
O=C(CCc1conc1-c1ccc(F)cc1)NCc1ccccc1 | 865
CCC1Oc2ccc(S(=O)(=O)N3CCC(C(=O)Nc4cccc(OC)c4)CC3)cc2NC1=O (stereo unspecified) | 854
COc1ccc(S(=O)(=O)N2CCc3nn(C)c(=O)n3CC2)cc1Cl | 710
CCc1ccc(NS(=O)(=O)c2ccc3c(c2)CCCC(=O)N3)cc1 | 794
COC1CCC12CCN(S(=O)(=O)c1ccc(C)c(F)c1)CC2 (stereo unspecified) | 1090
Cc1ccc(NC(=O)CN2CCc3[nH]c4c(C)c(Cl)ccc4c(=O)c3C2)c(Cl)c1 | 741
CCOC(=O)c1noc2ncnc(NCCCN3CCN(c4cccc(C)c4)C(C)C3)c12 (stereo unspecified) | 619
Cc1nn(-c2ccccc2)c2c1N(CCCC(=O)NC1CC1)C(=O)CS2 | 780

Structure (SMILES) | RP-LC retention time [s]
CCc1ccc(OCc2nc(CCN(C)C(=O)C3CCCC3)no2)cc1 | 1020
O=C(Nc1c(-c2ccccc2)nc2ccc(Cl)cn12)c1ccco1 | 674
Cc1ccc(NC(=O)Nc2nccn(-c3ccc(F)c(F)c3)c2=O)cc1F | 1020
CC(C)Cn1nc(CNC(=O)c2ccccn2)c2ccccc21 | 923
CCOc1ccc(-c2noc(CN3C(=O)COc4ccc(Cl)cc43)n2)cc1 | 1130
COC(=O)c1ncn2c1C(=O)N(Cc1ccc(Cl)cc1)C(C)(C(=O)NCc1ccccc1)C2 (stereo unspecified) | 755
Cc1noc(C2CC3(CCN(C(=O)C4(c5ccccc5)CC4)CC3)CN2C)n1 (stereo unspecified) | 631
COc1ccc(-c2nc(-c3ccc4c(c3)ncn4CCN3CCCCC3)no2)cc1 | 658
O=C(NCCC1CCN(S(=O)(=O)c2ccc(F)cc2)CC1)Nc1ccc(F)cc1F | 935
O=C(NCc1ccccc1)N1CCN(c2ccc(-c3cccs3)nn2)CC1 | 639
COCc1cc2nn(CC(=O)Nc3cc(F)ccc3C)c(=O)n2c(-c2ccccc2)n1 | 853
Cc1ccc2nc(N3CCN(c4ccccc4)CC3)c(-c3noc(C)n3)cc2c1 | 699
Cc1cccc(OCc2nc(CCN(C)C(=O)NCc3ccccc3)no2)c1 | 832
CCOc1ccc(N(CC)C(=O)c2nc(N(C)C)c3cnn(C)c3n2)cc1 | 745
Cc1cc2nn(CC(=O)N3CCCC3)c(=O)n2c(Nc2ccc(F)c(C)c2)n1 | 643
CCCNC(=O)C1CCN(c2nc3ccc(-c4cccnc4)nc3s2)CC1 | 604
CCCCn1c(CN2CCOCC2)nc2cc(NC(=O)c3cccs3)ccc21 | 678
Cc1cc(N2CCN(C(=O)c3cncc(Br)c3)CC2)nc2ccccc12 | 623
O=C(O)c1cc2cc(Cc3cccnc3)ccc2o1 | 592
CC(C)c1nnc2n1CCN(C(=O)c1ccsc1)C2 | 596
Cc1nn(Cc2nc(-c3ccc(NC(=O)C4CCCO4)cc3)oc2C)c(C)c1C (stereo unspecified) | 793
CCN(CC)CCCN(c1ccccc1)C1Cc2ccccc2C1 | 754

Structure (SMILES) | RP-LC retention time [s]
COC(=O)N1CCc2ccccc2C1C(=O)NCc1ccco1 (stereo unspecified) | 715
CCNC(=O)Nc1ccc(OCC(=O)NCc2cc(OC)cc(OC)c2)nc1 | 691
COc1ccc(OC)c(CNC(=O)c2c(N3CCCC3=O)c3cc(F)ccc3n2C)c1 | 904
CCCN1C(=O)C(NC(=O)c2cccc(OC)c2)(C(F)(F)F)C(C(=O)OC)=C1C (stereo unspecified) | 946
Cc1ccc(NS(=O)(=O)c2cc(-c3cc(C(F)(F)F)on3)sc2C)cc1C | 1200
COc1cccc(-c2cc(=O)n3c4ccccc4n(CC(=O)NCc4ccco4)c3n2)c1 | 864
O=C1CN(S(=O)(=O)c2cccc(Cl)c2)CC2(CCOCC2)N1CC1CC1 | 877
O=S(=O)(c1cccc2cccnc12)N1CCCn2nc(-c3cccnc3)cc2C1 | 624
Cc1ccc(NC(=O)Nc2nccn(-c3ccc(C)c(C)c3)c2=O)cc1C | 1150
O=C(Nc1ccc2c(c1)CCCN2S(=O)(=O)c1ccccc1)c1c(F)cccc1Cl | 1080
COc1ccc(-c2nnc(COc3cccc(NC(=O)Cc4cccs4)c3)o2)cc1 | 906
CCC(C(=O)NCCc1c[nH]c2ccccc12)n1nc(C)c2nn(-c3ccccc3)c(C)c2c1=O (stereo unspecified) | 932
Cc1ccc(Cl)cc1NC(=O)N1CC=C(c2cn(C)c3ncccc23)CC1 | 773
CCNC(=O)C1CCCN(c2nc3ncn(CC(=O)Nc4ccc5c(c4)OCO5)c(=O)c3s2)C1 (stereo unspecified) | 649
Cc1[nH]c2ccccc2c1C(=O)C(=O)NC(C)c1ccccc1 (stereo unspecified) | 794
CCn1nc2ccc(S(=O)(=O)N3CCCCC3)cn2c1=O | 744
COc1cccc(CNC(=O)CN2CCN(Cc3ccc(F)cc3)C2=O)c1 | 769
Cc1ccc(C)c(-c2csc(Nc3ccc(Cl)cc3)n2)c1 | 1340
Cc1ccc(-c2csc(-n3nc(C)c(CC(=O)Nc4ccc(Br)cc4)c3C)n2)cc1 | 1350
COCC(=O)Nc1ccccc1NC(=O)c1ccco1 | 618
Cc1ccc(NC(=O)CCc2ccc3nc[nH]c3c2)cc1Cl | 646
O=C(C1CCN(S(=O)(=O)c2cc(-c3noc(C4CCC4)n3)cs2)CC1)N1CCOCC1 | 863
